Like-named read-outs stand apart in the source and are kept apart here.
What was measured:
[1] = system: H460, non-small cell lung carcinoma; experiment: Fractionated tumour excision assay, H460 xenograft; type: in vivo, CD-1 nude mice
Procedure: (§1) FIG. 3 illustrates by way of a plot the activity of fractionated dose TPZ and compound 77 against hypoxic cells in three human tumour xenograft models: H460, non-small cell lung carcinoma; HT29, human colon carcinoma; SiHa, human cervical carcinoma. Drugs (1.0× fractionated MTD) were administered 30 min before each of 8×2.5 Gy doses of radiation.
(§2) The activity of multiple doses of compound 77 and TPZ against hypoxic cells in three human tumour xenografts is illustrated in FIG. 3. Subcutaneous tumours (average of two largest diameters 8-10 mm) were grown by inoculating 10^7 cells into the midline of the back in CD-1 nude mice. Drugs were administered by i.p. injection at 100% of the MTD for twice daily (9 am, 3 pm) administration for 4 days, either alone or 30 min before each of 8×2.5 Gy local irradiation of the tumour. Tumours were excised 18 hr after treatment and plated to determine the number of clonogens/g tumour tissue. Antitumour activity is measured as logs of cell kill in addition to the cell kill observed for radiation alone.

[2] = system: hypoxic cells in HT29 tumours; experiment: HT29 excision assay, single dose in combination with radiation; type: in vivo, CD-1 nude mice
Procedure: HT29 Excision assay. In vivo activity of single dose of compound 77 in combination with radiation. The activity of compound 77 against hypoxic cells in HT29 tumours is illustrated in FIG. 1. Subcutaneous HT29 tumours (average of two largest diameters 8-10 mm) were grown by inoculating 10^7 cells (obtained by enzymatic dissociation of multicellular spheroids) into CD-1 nude mice. Cmpd 77 was administered as a single i.p. dose (560 μmol/kg, which is 75% of the maximum tolerated dose) alone or 5 min after radiation (20 Gy). Tumours were excised 18 h after treatment and plated to determine the number of clonogens/g tumour tissue.

[3] = system: human colon carcinoma HT29; experiment: Proliferation assay (IC50) under aerobic and hypoxic conditions, HT29; type: cell-based; details: for IC50: Homo sapiens, 4 h drug exposure, sulforhodamine B
In short: (§3)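 HT29 (1100) and SiHa (1500) cells in αMEM with 17 mM glucose and 100 μM 2′-dCyd, exposed 4 h at 37 °C to 3-fold dilutions under 20% O2 or anoxia (<0.001% O2). Regrowth 5 (oxic) or 6 (anoxic) days; IC50 by sulforhodamine B. HCR = IC50 aerobic/IC50 hypoxic.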

[4] = system: SiHa, human cervical carcinoma; experiment: Fractionated tumour excision assay, SiHa xenograft; type: in vivo, CD-1 nude mice
Procedure: as §1, §2

[5] = system: HT29, human colon carcinoma; experiment: Fractionated tumour excision assay, HT29 xenograft; type: in vivo, CD-1 nude mice
Procedure: as §1, §2

[6] = system: human cervical carcinoma SiHa; experiment: Proliferation assay (IC50) under aerobic and hypoxic conditions, SiHa; type: cell-based; details: for IC50: Homo sapiens, 4 h drug exposure, sulforhodamine B
In short: as §3

[7] = fractionated drug plus 8×2.5 Gy radiation
[8] = i.p. at 100% of MTD twice daily for 4 days, 30 min before each of 8×2.5 Gy, excised 18 hr after treatment
[9] = hypoxic cytotoxicity ratio = IC50 aerobic/IC50 hypoxic

[O-][n+]1nc(CCCN2CCOCC2)[n+]([O-])c2cc3c(cc21)CCC3 [Compound 77, 3-[3-(4-Morpholinyl)propyl]-7,8-dihydro-6H-indeno[5,6-e][1,2,4]triazine 1,4-Dioxide]
killing relative to TPZ [1, 7]: greater killing than TPZ
log cell kill compared to radiation alone [1, 8]: significantly (P<0.05) greater log cell kill
Hypoxic cytotoxicity: difference in clonogens/g tumour tissue between radiation-only and radiation+drug groups ([2]; single i.p. dose 560 μmol/kg (75% of MTD) 5 min after radiation (20 Gy), tumours excised 18 h after treatment, ANOVA and Dunnett's test): statistically significant (p<0.05)
Selectivity for hypoxic cells: activity with radiation versus as a single agent ([2]; single i.p. dose 560 μmol/kg alone or 5 min after radiation (20 Gy)): greater activity of 77 with radiation than as a single agent
IC50 ([3]; HT-29, hypoxic (anaerobic chamber, <0.001% O2), then 6 days growth, read-out: IC50 (μM) hypoxic): 2.8 ± 0.6 µM
IC50 ([3]; HT-29, oxic (20% O2), then 5 days growth, read-out: IC50 (μM) oxic): 349 ± 62 µM
HCR [3, 9]: 127 ± 12
log cell kill in addition to radiation alone, 77 plus radiation relative to TPZ plus radiation ([4]; SiHa tumours, p<0.05, Student's t-test): significantly greater
killing relative to TPZ ([4]; SiHa, fractionated drug plus 8×2.5 Gy radiation): greater killing than TPZ
log cell kill compared to radiation alone ([4]; SiHa, i.p. at 100% of MTD twice daily for 4 days, 30 min before each of 8×2.5 Gy, excised 18 hr after treatment): significantly (P<0.05) greater log cell kill
killing relative to TPZ [5, 7]: greater killing than TPZ
log cell kill compared to radiation alone [5, 8]: significantly (P<0.05) greater log cell kill
IC50 ([6]; hypoxic (anaerobic chamber, <0.001% O2), then 6 days growth, read-out: IC50 (μM) hypoxic): 1.4 ± 0.3 µM
IC50 ([6]; oxic (20% O2), then 5 days growth, read-out: IC50 (μM) oxic): 302 ± 48 µM
HCR [6, 9]: 223 ± 14

Source: US7989451B2, “Tricyclic 1,2,4-triazine oxides and compositions for therapeutic use in cancer treatments” (Auckland Uniservices Limited, priority 2005, dated 2011)
